Experimental data published in patent US9815854B2, “3-(3H-imidazo[4,5-B]pyridin-2-yl)-1H-pyrazolo[3,4-C]pyridine and therapeutic uses thereof” (Samumed, LLC, priority 2014, dated 2017).

Experiments:
[1] = tested on: primary human fibroblasts derived from IPF patients (LL29 cells); assay: Inhibition of the fibrotic process in TGF-β1-treated primary human fibroblasts from IPF patients (αSMA staining); format: cell-based; settings: Fibroblast, 96 h, TGF-β1 20 ng/mL, 4 days, read-out: Inhibition of fibrosis EC50
Outline: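 IPF-derived LL29 lung fibroblasts, 1,500 per well in F12 with 1% FBS, treated with compound (10 μM to […], 0.1% DMSO) and TGF-β1 20 ng/mL for 4 days at 37 °C. αSMA-positive live cells imaged and normalised to TGF-β1 controls; EC50 by nonlinear regression over triplicate wells.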

[2] = tested on: Wnt activity (Sp5-Luc reporter, TCF/LEF binding sites) in SW480 colon carcinoma cells; assay: Sp5-Luc Wnt reporter gene screening assay in SW480 colon carcinoma cells; format: cell-based, human; settings: Homo sapiens
Outline: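 SW480 cells stably transduced with a lentiviral luciferase reporter driven by a Sp5 promoter with eight TCF/LEF sites were plated at 10,000/well in 10% FCS medium. Luminescence was normalised to DMSO and IC50 derived by four-parameter fit.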

IC50 [2]	SMILES	EC50 [1]
796 nM	O=C(Nc1cncc(-c2cc3c(-c4nc5cccnc5[nH]4)n[nH]c3cn2)c1)C1CCCCC1 [Compound 256, N-(5-(3-(3H-Imidazo[4,5-b]pyridin-2-yl)-1H-pyrazolo[3,4-c]pyridin-5-yl)pyridin-3-yl)cyclohexanecarboxamide]	≥ 9990 nM
26.1 nM	Cc1ccncc1-c1cc2c(-c3nc4c(-c5ccsc5)ccnc4[nH]3)n[nH]c2cn1 [Compound 265, 5-(4-Methylpyridin-3-yl)-3-(7-(thiophen-3-yl)-3H-imidazo[4,5-b]pyridin-2-yl)-1H-pyrazolo[3,4-c]pyridine]	34 nM
16.6 nM	O=C(Nc1cncc(-c2cc3c(-c4nc5c(-c6ccsc6)ccnc5[nH]4)n[nH]c3cn2)c1)c1ccccc1 [Compound 271, N-(5-(3-(7-(Thiophen-3-yl)-3H-imidazo[4,5-b]pyridin-2-yl)-1H-pyrazolo[3,4-c]pyridin-5-yl)pyridin-3-yl)benzarnide]	51 nM
24.9 nM	CCCC(=O)Nc1cncc(-c2cc3c(-c4nc5c(-c6ccsc6)ccnc5[nH]4)n[nH]c3cn2)c1 [Compound 277, N-(5-(3-(7-(Thiophen-3-yl)-3H-imidazo[4,5-b]pyridin-2-yl) 1H-pyrazolo[3,4-c]pyridin-5-yl)pyridin-3-yl)butyramide]	158 nM
74.7 nM	c1ccc(CNCc2cncc(-c3cc4c(-c5nc6c(-c7ccsc7)ccnc6[nH]5)n[nH]c4cn3)c2)cc1 [Compound 283, N-benzyl-1-(5-(3-(7-(thiophen-3-yl)-3H-imidazo[4,5-b]pyridin-2-yl)-1H-pyrazolopyridin-5-yl)pyridin-3-yl) methenamine]	> 10000 nM
46.8 nM	CC(C)Nc1cncc(-c2cc3c(-c4nc5c(-c6ccoc6)ccnc5[nH]4)n[nH]c3cn2)c1 [Compound 298, 5-(3-(7-(Furan-3-yl)-3H-imidazo[4,5-b]pyridin-2-yl)-1H-pyrazolo[3,4-c]pyridin-5-yl)-N-isopropylpyridin-3-amine]	472 nM
78.8 nM	CCCC(=O)Nc1cncc(-c2cc3c(-c4nc5c(-c6ccoc6)ccnc5[nH]4)n[nH]c3cn2)c1 [Compound 303, N-(5-(3-(7-(Furan-3-yl)-3H-imidazo[4,5-b]pyridin-2-yl)-1H-pyrazolo[3,4-c]pyridin-5-yl)pyridin-3-yl)butyramide]	20 nM
60.7 nM	CCCCC(=O)Nc1cncc(-c2cc3c(-c4nc5c(-c6ccoc6)ccnc5[nH]4)n[nH]c3cn2)c1 [Compound 304, N-(5-(3-(7-(Furan-3-yl)-3H-imidazo[4,5-b]pyridin-2-yl)-1H-pyrazolo [3,4c]pyridin-5-yl)pyridin-3-yl)pentanamide]	3650 nM
243 nM	c1cc(-c2ccoc2)c2nc(-c3n[nH]c4cnc(-c5cncc(CNCC6CCCC6)c5)cc34)[nH]c2n1 [Compound 310, 1-Cyclopentyl-N-((5-(3-(7-(furan-3-yl)-3H-imidazo[4,5-b]pyridin-2-yl)-1H-pyrazolo[3,4-c]pyridin-5-yl)pyridin-3-yl)methyl)methanamine]	641 nM
71.7 nM	CCC(=O)Nc1cncc(-c2cc3c(-c4nc5c(-c6cccs6)ccnc5[nH]4)n[nH]c3cn2)c1 [Compound 313]	39 nM
125 nM	CN(C)c1cncc(-c2cc3c(-c4nc5c(-c6cccs6)ccnc5[nH]4)n[nH]c3cn2)c1 [Compound 319]	75 nM
42.6 nM	CC(C)(C)C(=O)Nc1cncc(-c2cc3c(-c4nc5c(-c6cccs6)ccnc5[nH]4)n[nH]c3cn2)c1 [Compound 320]	25 nM
58.5 nM	CC(C)Nc1cncc(-c2cc3c(-c4nc5c(-c6cccs6)ccnc5[nH]4)n[nH]c3cn2)c1 [Compound 324, N-Isopropyl-5-(3-(7-(thiophen-2-yl)-3H-imidazo[4,5-b]pyridin-2-yl)-1H-pyrazolo[3,4-c]pyridin-5-yl)pyridin-3-amine]	≥ 9990 nM
137 nM	CN(C)Cc1cncc(-c2cc3c(-c4nc5c(-c6cccs6)ccnc5[nH]4)n[nH]c3cn2)c1 [Compound 325, N,N-Dimethyl-1-(5-(3-(7-(thiophen-2-yl)-3H-imidazo[4,5-b]pyridin-2-yl)-1H-pyrazolo[3,4-c]pyridin-5-yl)pyridin-3-yl)methanamine]	254 nM
83.1 nM	O=C(Nc1cncc(-c2cc3c(-c4nc5c(-c6cccs6)ccnc5[nH]4)n[nH]c3cn2)c1)C1CC1 [Compound 331]	319 nM
24.8 nM	FC1(F)CCN(Cc2cncc(-c3cc4c(-c5nc6c(-c7cccs7)ccnc6[nH]5)n[nH]c4cn3)c2)C1 [Compound 337]	114 nM
27 nM	CC(C)CC(=O)Nc1cncc(-c2cc3c(-c4nc5c(-c6ccc(F)s6)ccnc5[nH]4)n[nH]c3cn2)c1 [Compound 340, N -(5-(3-(7-(5-Fluorothiophen-2-yl)-3H-imidazo[4,5-b]pyridin-2-yl)-1H-pyrazolo[3,4-c]pyridin-5-yl)pyridin-3-yl)-3-methylbutanamide]	767 nM
22.6 nM	Cc1ccc(-c2ccnc3[nH]c(-c4n[nH]c5cnc(-c6cncc(N)c6)cc45)nc23)s1 [Compound 367, 5-(3-(7-(5-Methylthiophen-2-yl)-3H-imidazo[4,5-b]pyridin-2-yl)-1H-pyrazolo[3,4-c]pyridin-5-yl)pyridin-3-amine]	≤ 9 nM
24.8 nM	Cc1ccc(-c2ccnc3[nH]c(-c4n[nH]c5cnc(-c6cncc(NC(=O)C(C)(C)C)c6)cc45)nc23)s1 [Compound 372, N-(5-(3-(7-(5-Methylthiophen-2-yl)-3H-imidazo[4,5-b]pyridin-1)-1H-pyrazolo[3,4-c]pyridin-5-yl)pyridin-3-yl)pivalamide]	220 nM
16.4 nM	Cc1ccc(-c2ccnc3[nH]c(-c4n[nH]c5cnc(-c6cncc(NC(=O)C(C)C)c6)cc45)nc23)s1 [Compound 373, N-(5-(3-(7-(5-Methylthiophen-2-yl)-3H-imidazo[4,5-b]pyridin-2-yl)-1H-pyrazolo[3,4-c]pyridin-5-yl)pyridin-3-yl)isobutyramide]	≤ 9 nM
10.6 nM	Cc1ccc(-c2ccnc3[nH]c(-c4n[nH]c5cnc(-c6cncc(NC(C)C)c6)cc45)nc23)s1 [Compound 376, N-Isopropyl-5-(3-(7-(5-methylthiophen-2-yl)-3H-imidazo[4,5-b]pyridin-2-yl)-1H-pyrazolo[3,4-c]pyridin-5-yl)pyridin-3-amine]	≥ 9990 nM
180 nM	Cc1ccc(-c2ccnc3[nH]c(-c4n[nH]c5cnc(-c6cncc(CN7CCCCC7)c6)cc45)nc23)s1 [Compound 379, 3-(7-(5-Methylthiophen-2-yl)-3H-imidazo[4,5-b]pyridin-2-yl)-5-(5-(piperidin-1-ylmethyl)pyridin-3-yl)-1H-pyrazolo[3,4-c]pyridine]	299 nM
84.4 nM	Cc1ccc(-c2ccnc3[nH]c(-c4n[nH]c5cnc(-c6cncc(NC(=O)C7CCCC7)c6)cc45)nc23)s1 [Compound 385]	106 nM
> 10000 nM	CC(=O)c1ccc(-c2ccnc3[nH]c(-c4n[nH]c5cnc(-c6cncc(NC(=O)CC(C)(C)C)c6)cc45)nc23)s1 [Compound 406, N-(5-(3-(7-(5-Acetylthiophen-2-yl)-3H-imidazo[4,5-b]pyridin-2-yl)-1H-pyrazolo[3,4-c]pyridin-5-yl)pyridin-3-yl)-3,3-dimethylbutanamide]	≥ 9990 nM
> 10000 nM	CC(=O)c1ccc(-c2ccnc3[nH]c(-c4n[nH]c5cnc(-c6cncc(NC(=O)C7CCCCC7)c6)cc45)nc23)s1 [Compound 412, N-(5-(3-(7-(5-Acetylthiophen-2-yl)-3H-imidazo[4,5-b]pyridin-2-yl)-1H-pyrazolo[3,4-c]pyridin-5-yl)pyridin-3-yl)cyclohexanecarboxamide]	≥ 9990 nM
> 10000 nM	CS(=O)(=O)NCc1cc(F)cc(-c2ccnc3[nH]c(-c4n[nH]c5cnc(-c6cncc(NC(=O)c7ccccc7)c6)cc45)nc23)c1 [Compound 427, N-(5-(3-(7-(3-Fluoro-5-(methylsulfonamidomethyl)phenyl)-3H-imidazo[4,5-b]pyridin-2-yl)-1H-pyrazolo[3,4-c]pyridin-5-yl)pyridin-3-yl)benzamide]	≥ 9990 nM
> 10000 nM	CCCC(=O)Nc1cncc(-c2cc3c(-c4nc5c(-c6cc(F)cc(CNS(C)(=O)=O)c6)ccnc5[nH]4)n[nH]c3cn2)c1 [Compound 433, N-(5-(3-(7-(3-Fluoro-5-(methylsulfonamidomethyl)phenyl)-3H-imidazo[4,5-b]pyridin-2-yl)-1H-pyrazolo[3,4-c]pyridin-5-yl)pyridin-3-yl)butyramide]	≥ 9990 nM
> 10000 nM	CS(=O)(=O)NCc1cc(F)cc(-c2ccnc3[nH]c(-c4n[nH]c5cnc(-c6cncc(CNCc7ccccc7)c6)cc45)nc23)c1 [Compound 439, N-(3-(2-(5-(5-((Benzylamino)methyl)pyridin-3-yl)-1H-pyrazolo[3,4-c]pyridin-3-yl)-3H-imidazo[4,5-b]pyridin-7-yl)-5-fluorobenzyl)methanesulfonamide]	≤ 9 nM
> 10000 nM	CS(=O)(=O)NCc1cc(F)cc(-c2ccnc3[nH]c(-c4n[nH]c5cnc(-c6cncnc6)cc45)nc23)c1 [Compound 442, N-(3-Fluoro-5-(2-(5-(pyrimidin-5-yl)-1H-pyrazolo[3,4-c]pyridin-3-yl)-3H-imidazo[4,5-b]pyridin-7-yl)benzyl)methanesulfonamide]	≥ 9990 nM
